Results from patent US20120208781A1, “AMINOGLYCOSIDE DOSING REGIMENS” (Achaogen, Inc., priority 2009, published 2012).
Converted amounts (≈) assume the structure as drawn. “And” between values parts separate entries of the source, which are not always exact repeats. Equal entries are not always repeated. “Also recorded” adds a separate entry of the source. Where two headings read alike, the source gives them in different places.

How the values were obtained:
[1] = GLP 14-day repeat-dose safety study in dog; assay type: in vivo
Excerpt: The guidance states that the MRSD must be derived from the no observable adverse effect level (NOAEL) obtained in Good Laboratory Practice (GLP) nonclinical animal safety studies. […] Estimation of the human equivalent dose (HED) at the NOAEL is based on both a surface area conversion factor (SACF) and the data from these studies.

[2] = Plasma protein binding by equilibrium dialysis; assay type: in vitro ADME
Description: (§1) Bioanalytical data analyses were carried out using Analyst software (version 1.4.1, Applied Biosystems, Toronto, ON, Canada). […] PK parameters were determined by noncompartmental analysis using WinNonLin. Plasma protein binding was determined using equilibrium dialysis. In vitro stability was determined using commercially available plasma, microsomes and hepatocytes.

[3] = Phase 1 study 15 mg/kg/day once daily for five days: safety, BUN and Cr; assay type: in vivo, human; conditions: healthy subjects
Description: (§2) An additional randomized, double-blind, placebo-controlled study was performed to assess the safety and pharmacokinetics of Compound 1 following IV administration to healthy adult volunteers according to a high dose, short course regimen of 15 mg/kg/day of Compound 1 administered once daily for five days. Compound 1 was formulated as a sterile solution at a concentration of 50 mg/mL in 10 mL glass vials for intravenous (IV) administration (“Compound 1 Injection”). Eight healthy subjects were randomized to receive either Compound 1 Injection or placebo administered IV by 10 minute infusion daily for five days. Seven subjects received 5 doses and one received 3 doses (early withdrawal for personal reasons).
BUN and creatine (Cr) were assessed daily for each of the five days prior to dosing and at day 5 post-dosing to assess renal function following this high dose, short course regimen.

[4] = Pharmacokinetics of Compound 1 after single bolus IV injection in rats; assay type: in vivo, Sprague Dawley rats; conditions: for half-life / AUC(0-inf) / C0 / clearance / MRT inf / Vd: Sprague Dawley, rat, plasma, 10 mg/kg
Description: Male CD-1 mice, Sprague Dawley rats, and beagle dogs were administered Compound 1 intravenously. Compound 1 was preformulated as a sterile isotonic solution of 10 mg/mL in PBS. Specifically, male CD-1 mice were administered a single bolus IV injection of the Compound at 10 mg/kg, via a bolus IV injection into the tail vein. Two blood samples per mouse were collected by retro-orbital puncture into tubes containing the anticoagulant K2EDTA prior to dosing and at 0.033, 0.083, 0.25, 0.5, 1 and 24 hours. Rats were administered Compound 1 at 10 mg/kg via a bolus IV injection into the tail vein. Twelve blood samples per rat were collected via a jugular vein cannula into tubes containing the anticoagulant K2EDTA at various timepoints (i.e., 0.033, 0.083, 0.25, 0.5, 1, 2, 4, 6, 8, 10, 12, and 24 hours). Male beagle dogs were administered Compound 1 at 10 mg/kg through a temporary percutaneous catheter placed in a peripheral vein. Whole blood samples (0.5 mL) were collected from each dog prior to dosing and at 0.033, 0.083, 0.25, 0.5, 1, 2, 4, 6, 8, and 24 hours via direct venipuncture of a jugular or cephalic vein into tubes containing the anticoagulant K2EDTA. A sparse sampling method was employed to conserve animals and provide the best data possible from fewer mice. Samples were centrifuged, and plasma was collected and transferred into a new tube and frozen at −80° C. until they were analyzed.
Blood, urine, and kidney samples collected over 24 hours were analyzed for Compound 1 levels using LC-MS/MS. Method performance was acceptable in the concentration ranges necessary to determine plasma levels. Compound 1 plasma concentrations were determined by comparing Compound 1 concentration in the sample to a standard curve derived from LC-MS/MS measurements of the analyte. The standard curve fit was linear with a 1/x^2 weighting.
as §1

A. baumannii (AB) = experiment: MIC, broth microdilution, Brooklyn hospital isolates: A. baumannii; assay type: cell-based
Description: In another study, the activity of Compound 1 against a collection of contemporary Gram-negative bacteria was determined. Unique patient isolates of P. aeruginosa (PA), A. baumannii (AB), K. pneumoniae (KP), E. coli (EC), and Enterobacter spp. (EB) from prior surveys at 16 Brooklyn, N.Y. hospitals were selected based on resistance patterns. The majority of isolates were fingerprinted by automated ribotyping. MICs were performed by broth microdilution. PCR was used to identify aminoglycoside-modifying enzymes (AMEs) in AB and KP and the KPC gene in Enterobacteriaceae (EN). The expression of the efflux genes mexA, C, E and X in PA, and adeB in AB was assessed by real-time RT-PCR.

[5] = Phase 1 study 15 mg/kg/day once daily for five days: pharmacokinetics; assay type: in vivo; conditions: human
Description: as §2

hearing function = experiment: 28-day guinea pig ototoxicity study of Compound 1: ABR and observations
Description: Additionally, four groups of four male and four female animals were utilized for toxicokinetic (TK) sampling and received the control or test article in the same manner as the main study groups at respective dose levels of 0 (Vehicle Control), 8, 30, or 80 mg/kg.
Physical examinations were conducted pretest on all animals and prior to study termination for main study animals. […] Blood samples for determination of the plasma concentrations of the test article were collected from TK animals at designated time points on Day 1 and Day 14. After blood collection, the TK animals were euthanized and the carcasses were discarded.

[6] = 15 mg/kg/day IV once daily for five days, one line per Subject ID, 15 mg/kg/day
[7] = iv, 10 mg/kg single bolus IV, Mean ± SD
[8] = iv, 10 mg/kg single bolus IV, Rat 101
[9] = iv, 10 mg/kg single bolus IV, Rat 102
[10] = iv, 10 mg/kg single bolus IV, Rat 103
[11] = Acinetobacter baumannii, AB (n = 38)
[12] = after 5 days of once-daily IV 15 mg/kg
[13] = plasma, after 5 days of once-daily IV 15 mg/kg

CN[C@@H]1[C@@H](O)[C@@H](O[C@@H]2[C@@H](O)[C@H](O[C@H]3OC(CNCCO)=CC[C@H]3N)[C@@H](N)C[C@H]2NC(=O)[C@@H](O)CCN)OC[C@]1(C)O [Compound 1, 6′-(2-Hydroxy-ethyl)-1-(4-amino-2(S)-hydroxy-butyryl)-sisomicin]
NOAEL at 14 days ([1]; dog, in vivo): 3 mg/kg | HED ([1]; from dog NOAEL, SACF 1.8): 1.7 mg/kg | new toxicities ([1]; nonclinical GLP safety studies in dogs): no new toxicities apart from those already known to the class | cardiac or respiratory safety signals ([1]; nonclinical GLP studies in dogs): no cardiac or respiratory safety signals | fraction unbound [2]: > 0.8 | severity of adverse events ([3]; 15 mg/kg/day IV 10 minute infusion, five days): mild to moderate | Serum Creatine, Pre-dose ([3]; 15 mg/kg/day IV once daily for five days, fifth pre-dose column, one line per Subject ID, 15 mg/kg/day): 0.7 mg/dL (2×) and 0.8 mg/dL and 1.2 mg/dL (2×) and 1.1 mg/dL and 1.0 mg/dL | BUN, Post-dose 5 [3, 6]: 13 mg/dL (3×) and 14 mg/dL and 9 mg/dL and 20 mg/dL and 15 mg/dL | BUN, Pre-dose 1 [3, 6]: 9 mg/dL (2×) and 10 mg/dL and 13 mg/dL and 5 mg/dL and 15 mg/dL and 19 mg/dL and 14 mg/dL | BUN, Pre-dose 2 [3, 6]: 18 mg/dL and 16 mg/dL and 19 mg/dL and 17 mg/dL (2×) and 8 mg/dL and 20 mg/dL and 22 mg/dL | BUN, Pre-dose 3 [3, 6]: 13 mg/dL and 18 mg/dL (2×) and 19 mg/dL and 17 mg/dL and 9 mg/dL and 15 mg/dL and 14 mg/dL | BUN, Pre-dose 4 [3, 6]: 13 mg/dL and 14 mg/dL (2×) and 12 mg/dL and 8 mg/dL and 17 mg/dL and 19 mg/dL and 16 mg/dL | BUN, Pre-dose 5 [3, 6]: 16 mg/dL (3×) and 13 mg/dL and 14 mg/dL and 11 mg/dL and 15 mg/dL | Serum Creatine, Post-dose 5 [3, 6]: 0.6 mg/dL (2×) and 1.0 mg/dL and 0.7 mg/dL and 1.1 mg/dL and 0.9 mg/dL (2×) | Serum Creatine, Pre-dose 1 [3, 6]: 0.7 mg/dL (2×) and 0.6 mg/dL (2×) and 0.9 mg/dL (2×) and 1.2 mg/dL and 1.0 mg/dL | Serum Creatine, Pre-dose 2 [3, 6]: 0.7 mg/dL and 0.6 mg/dL (2×) and 0.9 mg/dL (2×) and 1.1 mg/dL (2×) and 1.3 mg/dL | Serum Creatine, Pre-dose 3 [3, 6]: 0.6 mg/dL (3×) and 0.7 mg/dL and 1.0 mg/dL and 1.1 mg/dL and 0.9 mg/dL and 0.8 mg/dL | Serum Creatine, Pre-dose 4 [3, 6]: 0.6 mg/dL (4×) and 1.0 mg/dL and 1.2 mg/dL and 0.9 mg/dL (2×) | changes in BUN or Cr at day 5 post-dosing ([3]; 15 mg/kg/day IV, five days): no substantial changes in either BUN or Cr | tolerability ([3]; 15 mg/kg/day IV, five days): well-tolerated | ototoxicity or nephrotoxicity ([3]; 15 mg/kg/day IV, five days, through the treatment period): No evidence of ototoxicity or nephrotoxicity | tissue distribution [4]: distributed to rat kidneys | half-life ([4]; intravenous, read-out: t½ (renal clearance) (converted)): ~60 min | AUC(0-inf) [4, 7]: 15700 ng·h/mL | C0 [4, 7]: 37500 ng/mL | clearance [4, 7]: 10.8 mL/min/kg | MRT inf ([4]; iv, 10 mg/kg single bolus IV, Mean ± SD, read-out: MRT0-∞): 42 min | Vd ([4]; iv, 10 mg/kg single bolus IV, Mean ± SD, read-out: Vss): 0.437 L/kg | half-life ([4]; iv, 10 mg/kg single bolus IV, Mean ± SD, read-out: t1/2 (converted)): 56.4 min | AUC(0-inf) [4, 8]: 13800 ng·h/mL | C0 [4, 8]: 41700 ng/mL | clearance [4, 8]: 12.1 mL/min/kg | MRT inf ([4]; iv, 10 mg/kg single bolus IV, Rat 101, read-out: MRT0-∞): 36 min | Vd ([4]; iv, 10 mg/kg single bolus IV, Rat 101, read-out: Vss): 0.403 L/kg | half-life ([4]; iv, 10 mg/kg single bolus IV, Rat 101, read-out: t1/2 (converted)): 57 min | AUC(0-inf) [4, 9]: 18500 ng·h/mL | C0 [4, 9]: 42200 ng/mL | clearance [4, 9]: 9.02 mL/min/kg | MRT inf ([4]; iv, 10 mg/kg single bolus IV, Rat 102, read-out: MRT0-∞): 48 min | Vd ([4]; iv, 10 mg/kg single bolus IV, Rat 102, read-out: Vss): 0.434 L/kg | half-life ([4]; iv, 10 mg/kg single bolus IV, Rat 102, read-out: t1/2 (converted)): 55.8 min | AUC(0-inf) [4, 10]: 14800 ng·h/mL | C0 [4, 10]: 28800 ng/mL | clearance [4, 10]: 11.3 mL/min/kg | MRT inf ([4]; iv, 10 mg/kg single bolus IV, Rat 103, read-out: MRT0-∞): 42 min | Vd ([4]; iv, 10 mg/kg single bolus IV, Rat 103, read-out: Vss): 0.473 L/kg | half-life ([4]; iv, 10 mg/kg single bolus IV, Rat 103, read-out: t1/2 (converted)): 55.8 min | Cmax and exposure (AUC) dose linearity ([4]; intravenous dosing): dose linear to 75 mg/kg | isolates with Compound 1 MICs >8 (A. baumannii (AB); AB isolates with increased expression of adeB): 69% | isolates with Compound 1 MICs>4 (A. baumannii (AB); AB isolates with the AME aacA4): 93% | isolates with Compound 1 MICs >8 (A. baumannii (AB); AB isolates without increased expression of adeB): 13% | isolates with Compound 1 MICs>4 (A. baumannii (AB); AB isolates without the AME aacA4): 50% | MIC50 (A. baumannii (AB); [11]): 8 µg/mL (≈ 13.5 µM) | MIC90 (A. baumannii (AB); [11]): > 16 µg/mL | MIC (A. baumannii (AB); Acinetobacter baumannii, AB isolates without AMEs, read-out: MICs achieved by some isolates): > 16 µg/mL | area under the plasma concentration-time curve [5, 12]: 239000 ng·h/mL | fluctuation index [5, 12]: > 1000% | trough (Cmin) [5, 12]: 400 ng/mL | drug accumulation ([5]; once-daily dosing for up to 5 days): lack of appreciable drug accumulation | AUC ([5]; plasma, intravenous, 15 mg/kg, read-out: average AUC in humans): ~240000 ng·h/mL | clearance [5, 13]: 1.1 mL/min/kg | half-life [5, 13]: ~180 min | Cmax ([5]; plasma, after 5 days of once-daily IV 15 mg/kg, read-out: peak (Cmax)): 113000 ng/mL | Vd ([5]; plasma, after 5 days of once-daily IV 15 mg/kg, read-out: steady state volume of distribution): 0.24 L/kg | animals with elevation of ABR thresholds (mild, 4 and 10 kHz, conductive) (hearing function; guinea pigs, 8 mg/kg dose group): one male and one female | ABR pre- to post-dosing hearing threshold shift (hearing function; guinea pigs, 8, 30, 80 mg/kg for 14 days, 4, 10, 20 kHz): no significant pre- to post-dosing hearing threshold shift at any frequency; also recorded: did not have an adverse effect | functional hearing loss (ABR) (hearing function; guinea pigs, 14 days, up to 80 mg/kg/day): no functional hearing loss; also recorded: None of the animals treated with Compound 1 at any dose showed any functional hearing loss | mortality and general observations (hearing function; guinea pigs, SC 8, 30, 80 mg/kg for 14 days): did not produce mortality and was without effect on clinical observations, body weights, physical examinations, ABR evaluations, macroscopic findings, middle ear assessments, or ossicle mobility
